Measurements as given in EP0061341A2, “6-Substituted hexahydroindazolo isoquinolines” (priority 1981, dated 1982).

Test system: prolactin
Assay: Serum prolactin levels in rats, reserpinized and non-reserpinized
Format: in vivo, rats of the Sprague-Dawley strain
Settings: for Prolactin Levels Non-Reserpinized 1 / Prolactin Levels Non-Reserpinized 2: rats not pretreated with reserpine, compound 1 mg./kg.; for Prolactin Levels Non-Reserpinized 1: run 1; for Prolactin Levels Non-Reserpinized 2: run 2; for Prolactin Levels Reserpinize: reserpine 2.0 mg. i.p. 18 hours before, compound 1 mg./kg. intraperitoneally, serum one hour after treatment
Experimental: Adult male rats of the Sprague-Dawley strain weighing about 200 g. were housed in an air-conditioned room with controlled lighting (lights on 6 a.m. - 8 p.m.) and fed lab chow and water ad libitum. Each rat received an intraperitoneal.injection of 2.0 mg. of reserpine in aqueous suspension 18 hours before administration of the compound of formula I. The purpose of the reserpine was to keep prolactin levels uniformly elevated. The compounds under test were dissolved in water and were injected intraperitoneally at a 1 mg./kg. dose level. Each compound was administered to a group of 10 rats, and a control group of 10 intact males received an equivalent amount of solvent. One hour after treatment all rats were killed by decapitation, and 150 ul. aliquots of serum were assayed for prolactin.
In addition, prolactin levels were determined in two runs in which the rats were not pretreated with reserpin. The dose level of the drug was maintained at 1 mg./kg.

Row | Structure (SMILES) | Prolactin Levels Non-Reserpinized 1 | Prolactin Levels Non-Reserpinized 2 | Prolactin Levels Reserpinize
1 | CCCN1CCc2cc(O)c(O)c3c2C1Cc1c[nH]nc1-3 (racemic) [1,2-Dihydroxy-6-n-propyl-4,5,,6,6a,7,9-hexahydroindazolo[7,6,5-ij]isoquinoline] | 40.0±9.5 (P<.05) | 23.8±2.8 | 49.9±6.0 (P<.01)
2 | C=CCN1CCc2cc(OC)c(OC)c3c2C1Cc1c[nH]nc1-3 (racemic) [l,2-Dimethoxy-6-allyl-4,5,6,6a,7,9-hexahydroindazolo[7,6,5-ij]isoquinoline] | 7.3±1.6 |  | 26.7±2.7
3 | CN1CCc2cc(O)c(O)c3c2C1Cc1c[nH]nc1-3 (stereo not shown) [1,2-Dihydroxy-6-methyl-4,5,6,6a,7,9-hexahydroindazolo[7,6,5-ij]isoquinoline] | 45.2±5.4 (P<.001) | 21.6±3.9 | 36.4±4.9
4 | CCN1CCc2cc(OC)c(OC)c3c2C1Cc1c[nH]nc1-3 (stereo not shown) [1,2-Dimethoxy-6-ethyl-4,5,6,6a,7,9-hexahydroindazolo[7,6,5-ij]isoquinoline] | 4.6±0.6 |  | 30.5±4.9
5 | COc1cc2c3c(c1OC)-c1n[nH]cc1CC3N(C)CC2 (stereo not shown) [1,2-Dimethoxy-6-methyl-4,5,6,6a,7,9-hexahydroindazolo[7,6,5-ij]isoquinoline] | 36.6±6.6 (P<.02) | 9.0±3.2 | 41.6±7.7
6 | CN1CCc2cccc3c2C1Cc1c[nH]nc1-3 (stereo not shown) [6-Methyl-4,5,6,6a,7,9-hexahydroindazolo-[7,6,5-ij]isoquinoline] | 19.7±3.1 | 11.8±2.7 | 39.3±7.3
7 | CCCN1CCc2cccc3c2C1Cc1c[nH]nc1-3 (stereo not shown) [6-n-Propyl-4,5,6,6a,7,9-hexahydroindazolo[7,6,5-ij]isoquinoline] | 9.5±1.7 | 7.8±2.6 | 22.6±3.8
